Experimental data published in ChEMBL document CHEMBL1201862, “PubChem BioAssay data set” (2004).
Activity calls are given as the source filed them.

Columns and labels:
[1] = test system: Streptococcus sp. 'group A'; assay: growth inhibition of control SK(-) GAS strain, dose response, counter-screen for streptokinase expression inhibitor project, luminescence, kanamycin, BacTiterGlo, confirmation (AID 1900); format: functional, organism-based
cells [2] = format: functional, cell-based
[3] = biological target: Serine/threonine-protein phosphatase PP1-alpha catalytic subunit (Homo sapiens, UniProt P62136); assay: PP1 phosphatase inhibitors, dose response, biochemical, fluorescence (AID 2403);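 further: phosphatase turnover of OMFP into fluorescent 3-O-methylfluorescein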
Sequence of Serine/threonine-protein phosphatase PP1-alpha catalytic subunit (P62136 whole entry): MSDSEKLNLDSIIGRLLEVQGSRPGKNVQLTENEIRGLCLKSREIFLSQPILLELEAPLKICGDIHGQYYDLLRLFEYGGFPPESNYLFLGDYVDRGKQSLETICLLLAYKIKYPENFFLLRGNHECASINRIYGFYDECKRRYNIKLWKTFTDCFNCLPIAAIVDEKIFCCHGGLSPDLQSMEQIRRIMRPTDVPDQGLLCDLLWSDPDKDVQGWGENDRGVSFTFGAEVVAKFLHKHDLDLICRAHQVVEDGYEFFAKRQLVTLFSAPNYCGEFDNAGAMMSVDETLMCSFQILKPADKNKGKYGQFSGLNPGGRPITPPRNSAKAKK

[4] = inhibitors of intracellular T. cruzi replication, confirmation, NIH3T3 host cells, beta-gal luminescence (AID 2044); format: functional, cell-based;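 further: intracellular parasites grown in NIH/3T3 mouse fibroblasts as host cells; luminescent beta-galactosidase reporter signal from transgenic T. cruzi replicating inside host cells; inhibitors lower the luminescence signal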
cells [5] = format: functional, cell-based; remark: listed apart in the source
[6] = biological target: Serine/threonine-protein phosphatase (Homo sapiens, UniProt Q9BPW0); assay: Counterscreen for inhibitors of PP1: fluorescence-based biochemical high throughput dose response assay to identify inhibitors of Protein Phosphatase 5 (PP5). [Related pubchem assays: 2034 (Summary (PP5 inhibitors)), 1987 (PP5 inhibitors in singlate), 2235 (PP1 inhibitors in singlate)]
Sequence of Serine/threonine-protein phosphatase (Q9BPW0 whole entry): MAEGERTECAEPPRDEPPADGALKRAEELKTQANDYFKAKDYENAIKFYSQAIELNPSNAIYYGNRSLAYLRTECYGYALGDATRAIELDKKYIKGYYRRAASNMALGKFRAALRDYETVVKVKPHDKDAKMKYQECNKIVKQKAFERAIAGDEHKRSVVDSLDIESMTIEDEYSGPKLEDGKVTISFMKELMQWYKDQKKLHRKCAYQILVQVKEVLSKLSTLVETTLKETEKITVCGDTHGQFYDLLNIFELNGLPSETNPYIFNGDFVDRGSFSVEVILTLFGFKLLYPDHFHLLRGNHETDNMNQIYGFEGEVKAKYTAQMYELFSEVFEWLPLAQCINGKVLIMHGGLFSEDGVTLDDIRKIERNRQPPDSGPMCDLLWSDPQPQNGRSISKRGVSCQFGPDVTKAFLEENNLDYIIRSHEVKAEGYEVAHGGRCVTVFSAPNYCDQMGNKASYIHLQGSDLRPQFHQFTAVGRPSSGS

[7] = cytotoxicity toward NIH3T3 fibroblasts, dose response, counter-screen, cell-based, ATP luminescence, mouse fibroblasts (AID 2010); format: functional;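 further: cells exposed to compound for about 90 hours before reading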
Streptococcus = assay: Group A Streptococcus viability loss, dose response, counter-screen for streptokinase expression inhibitor project, luminescence, BacTiterGlo (AID 1915); format: functional, organism-based;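 further: potency for reduction of bacterial viability or growth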
Nonstructural protein 1 = Nonstructural protein 1 (Influenza A virus, UniProt Q194T2); format: functional, Influenza A virus (A/California/07/2009(H1N1))
Sequence of Nonstructural protein 1 (Q194T2 whole entry): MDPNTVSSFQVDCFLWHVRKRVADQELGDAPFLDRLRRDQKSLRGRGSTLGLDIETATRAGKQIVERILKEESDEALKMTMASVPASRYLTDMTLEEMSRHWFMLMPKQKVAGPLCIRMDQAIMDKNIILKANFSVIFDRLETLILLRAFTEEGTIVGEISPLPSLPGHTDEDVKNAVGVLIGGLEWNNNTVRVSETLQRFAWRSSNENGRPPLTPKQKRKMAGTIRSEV

INS1 = assay: beta cell apoptosis inhibitors, cytokine rescue, dose response, luminescence, retest (AID 449756); format: functional, cell-based; details: Rattus norvegicus;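 further: cell death triggered by IL-1 beta plus TNF-alpha plus IFN-gamma mixture; protective hits raise ATP signal compared with cytokine alone wells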
[8] = biological target: Photoreceptor-specific nuclear receptor (Homo sapiens, UniProt Q9Y5X4); format: functional, cell-based;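 further: CHO-S cells with Gal4-NCOR and VP16-NR2E3 two-hybrid luciferase reporter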
Sequence of Photoreceptor-specific nuclear receptor (Q9Y5X4 whole entry, the tested form may be a part): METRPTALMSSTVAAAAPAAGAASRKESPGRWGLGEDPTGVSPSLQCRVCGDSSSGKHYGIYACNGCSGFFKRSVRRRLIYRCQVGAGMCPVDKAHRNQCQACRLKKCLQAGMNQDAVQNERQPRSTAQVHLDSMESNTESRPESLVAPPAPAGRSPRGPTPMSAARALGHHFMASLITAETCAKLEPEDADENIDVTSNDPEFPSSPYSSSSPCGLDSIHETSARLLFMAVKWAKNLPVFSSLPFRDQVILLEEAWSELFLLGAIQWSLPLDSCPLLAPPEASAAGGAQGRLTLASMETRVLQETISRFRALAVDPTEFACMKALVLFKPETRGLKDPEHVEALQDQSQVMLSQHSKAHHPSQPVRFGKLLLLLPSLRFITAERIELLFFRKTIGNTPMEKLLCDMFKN

[9] = HeLa cell cytotoxicity, dose response, cytotoxicity control, CellTiter-Glo luminescence, dry powder, set 2 (AID 720593); format: functional, cell-based
Large T antigen = Large T antigen (Simian virus 40, UniProt P03070); format: functional, Betapolyomavirus macacae;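 further: Confirmatory-stage PubChem screen for compounds that inhibit SV40 T antigen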
Sequence of Large T antigen (P03070 whole entry): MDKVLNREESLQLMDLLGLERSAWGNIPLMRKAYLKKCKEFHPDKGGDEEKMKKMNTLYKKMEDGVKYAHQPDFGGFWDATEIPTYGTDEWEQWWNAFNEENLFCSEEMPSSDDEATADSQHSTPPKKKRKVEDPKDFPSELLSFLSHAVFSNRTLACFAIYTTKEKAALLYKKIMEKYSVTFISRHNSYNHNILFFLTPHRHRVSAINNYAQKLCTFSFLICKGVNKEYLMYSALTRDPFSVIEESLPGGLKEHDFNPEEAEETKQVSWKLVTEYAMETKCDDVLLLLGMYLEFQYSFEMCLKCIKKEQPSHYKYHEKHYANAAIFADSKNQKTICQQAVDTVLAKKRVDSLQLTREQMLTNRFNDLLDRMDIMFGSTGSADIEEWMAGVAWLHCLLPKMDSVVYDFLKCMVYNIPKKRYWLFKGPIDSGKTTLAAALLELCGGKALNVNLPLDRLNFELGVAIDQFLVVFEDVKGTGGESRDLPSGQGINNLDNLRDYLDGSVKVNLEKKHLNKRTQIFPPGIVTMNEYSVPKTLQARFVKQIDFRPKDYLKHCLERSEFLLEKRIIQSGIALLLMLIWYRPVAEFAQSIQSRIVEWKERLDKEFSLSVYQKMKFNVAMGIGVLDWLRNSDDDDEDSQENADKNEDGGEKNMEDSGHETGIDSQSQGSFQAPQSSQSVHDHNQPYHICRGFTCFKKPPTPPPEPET

[10] = HepG2 cell cytotoxicity, dose response, cytotoxicity control, ATP luminescence, cherry-pick, set 6 (AID 1053125); format: functional, cell-based
cells [11] = details: A549
cells [12] = details: HEK293
cells [13] = assay: cells
[14] = biological target: Fructose-bisphosphate aldolase (Mycobacterium tuberculosis, UniProt P9WQA3); assay: Fluorescence-based biochemical high throughput dose response assay for inhibitors of the fructose-bisphosphate aldolase (FBA) of M. tuberculosis.; format: functional
Sequence of Fructose-bisphosphate aldolase (P9WQA3 whole entry): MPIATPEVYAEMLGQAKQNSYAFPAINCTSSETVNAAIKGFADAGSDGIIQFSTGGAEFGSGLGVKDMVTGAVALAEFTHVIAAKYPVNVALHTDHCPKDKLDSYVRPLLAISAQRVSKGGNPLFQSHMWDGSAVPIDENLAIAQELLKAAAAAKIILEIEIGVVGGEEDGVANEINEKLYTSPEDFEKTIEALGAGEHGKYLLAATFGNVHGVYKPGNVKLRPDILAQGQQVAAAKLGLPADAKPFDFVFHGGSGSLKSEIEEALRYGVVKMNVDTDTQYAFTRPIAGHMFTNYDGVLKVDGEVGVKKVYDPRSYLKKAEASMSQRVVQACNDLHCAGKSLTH

[15] = biological target: T1, Methionyl-tRNA synthetase, putative (Trypanosoma brucei brucei, UniProt Q38C91); format: functional, Trypanosoma brucei brucei strain 927/4 GUTat10.1
T1 sequence (Q38C91 whole entry): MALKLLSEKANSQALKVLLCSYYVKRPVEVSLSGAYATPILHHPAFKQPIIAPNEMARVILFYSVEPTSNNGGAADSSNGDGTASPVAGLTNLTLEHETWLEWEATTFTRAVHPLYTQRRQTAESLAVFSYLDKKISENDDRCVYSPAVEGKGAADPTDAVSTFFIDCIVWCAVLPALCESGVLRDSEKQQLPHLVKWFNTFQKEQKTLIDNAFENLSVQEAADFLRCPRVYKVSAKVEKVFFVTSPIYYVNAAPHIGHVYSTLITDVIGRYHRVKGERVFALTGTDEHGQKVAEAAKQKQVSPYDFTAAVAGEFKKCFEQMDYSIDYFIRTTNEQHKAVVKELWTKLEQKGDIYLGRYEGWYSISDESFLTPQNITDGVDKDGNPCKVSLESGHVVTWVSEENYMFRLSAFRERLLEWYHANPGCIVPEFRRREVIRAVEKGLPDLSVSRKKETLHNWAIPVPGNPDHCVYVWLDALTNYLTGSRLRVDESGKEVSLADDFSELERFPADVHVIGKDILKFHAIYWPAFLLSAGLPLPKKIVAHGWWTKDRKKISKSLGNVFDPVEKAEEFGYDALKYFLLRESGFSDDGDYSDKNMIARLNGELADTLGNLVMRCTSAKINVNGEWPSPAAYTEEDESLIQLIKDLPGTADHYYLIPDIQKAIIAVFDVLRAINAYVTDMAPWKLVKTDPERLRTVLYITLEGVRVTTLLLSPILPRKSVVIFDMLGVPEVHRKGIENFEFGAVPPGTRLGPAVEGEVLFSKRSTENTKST

[16] = Counterscreen for inhibitors of Trypanosoma brucei methionyl tRNA synthetase (MetRS): Luminescence-based cell-based high throughput dose response assay to identify compounds that are cytotoxic to Jurkat human T lymphocyte cells.; format: functional
[17] = biological target: T1, Methionyl-tRNA synthetase, putative; format: functional, Trypanosoma brucei brucei strain 927/4 GUTat10.1; remark: listed apart in the source
[18] = Late stage counterscreen for inhibitors of Trypanosoma brucei methionyl tRNA synthetase (MetRS): Luminescence-based cell-based high throughput dose response assay to identify compounds that are cytotoxic to Jurkat human T lymphocyte cells.; format: functional
[19] = Shn3 3'UTR reporter inhibitors, dose response, cell-based, Clone20 osteoblasts, firefly luciferase, cherry-picked (AID 624132); format: functional;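 further: firefly luciferase luminescence from reporter carrying the Shn3 3'UTR in osteoblasts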
[20] = HepG2 cell cytotoxicity, dose response, cytotoxicity control for Shn3 inhibitor project, CellTiter-Glo, cherry-picked (AID 624134); format: functional, cell-based
[21] = control 3'UTR Renilla luciferase suppression, dose response, counter-screen for Shn3 inhibitor project, cell-based, Clone20-Shn3RL, cherry-picked (AID 624133); format: functional
[22] = biological target: T2, Low molecular weight phosphotyrosine protein phosphatase (Homo sapiens, UniProt P24666); format: functional; details: read-out: IC50_Mean
T2 sequence (P24666 whole entry): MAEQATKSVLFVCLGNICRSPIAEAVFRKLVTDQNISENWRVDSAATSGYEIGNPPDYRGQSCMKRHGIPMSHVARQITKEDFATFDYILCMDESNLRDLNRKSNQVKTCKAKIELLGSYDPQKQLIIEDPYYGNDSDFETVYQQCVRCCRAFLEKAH

[23] = biological target: T2, Low molecular weight phosphotyrosine protein phosphatase; format: functional; details: read-out: IC50_Mean; remark: listed apart in the source
[24] = reduction of Shn3 3'UTR firefly luciferase signal, dose response, Schnurri-3 inhibitor project, cell-based, Clone20 osteoblasts, cherry-pick, set 2 (AID 720490); format: functional;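 further: actives lower the luminescence signal as inhibitors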
[25] = inhibitors of control Renilla luciferase reporter, dose response, counter-screen for Shn3 3'UTR targeting project, Clone20-Shn3RL cells, dual-Glo, cherry-pick, set 2 (AID 720724); format: functional, cell-based; details: Dual-Go Shn3RL
[26] = miR-122 activators in hepatoma reporter cells, dose response, cell-based, Huh7 psiCHECK-miR122, Renilla luciferase, cherry-picked (AID 651956); format: functional;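 further: huh7 hepatoma cells stably carrying a psiCHECK-2 miR-122 sensor plasmid; renilla luciferase signal reporting endogenous miR-122 activity after 48 h compound exposure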
[27] = HEK293T cytotoxicity, dose response, cytotoxicity control for miR-122 modulator project, cell-based, inhibitor set, cherry-pick, set 2 (AID 720697); format: functional
[28] = HEK293T cytotoxicity, dose response, cytotoxicity control for miR-122 modulator project, cell-based, activator set, cherry-pick (AID 720690); format: functional;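 further: HEK293T human cells scored for general mammalian cytotoxicity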

In the case of Nc1nc(-c2ccccn2)nc(N)c1Cc1ccc(Cl)cc1Cl, the EC50 [1] is reported as 3.52 µM (active), the EC50 (cells [2]) is reported as 13.9 µM (active) and the IC50 [3] is reported as 8.64 µM (active). The EC50 [4] was 1.26 µM (active), the EC50 (cells [5]) was > 350 µM (not active) and the IC50 [6] was 47.5 µM (not active). For the same compound, the EC50 [7] was < 6 µM (inconclusive), the EC50 (Streptococcus) was 13.5 µM (active) and the IC50 (Nonstructural protein 1) was 5.11 µM (active). For the same compound, the AC50 (INS1) was 4.55 µM (active), the IC50 [8] was 4.53 µM (active) and the AC50 [9] was > 52 µM (inactive).

In the case of O=C(c1ccccc1)N1CCN(c2ccc(NCc3ccc4c(c3)OCO4)cc2)CC1, the IC50 (Large T antigen) is reported as > 100 µM (active), the AC50 [10] is reported as > 52 µM (inactive) and the AC50 (cells [11]) is reported as > 52 µM (inactive). For the same compound, the AC50 (cells [12]) was 20.2 µM (active).

In the case of CCN(CC)CCNC(=O)c1sc2nc(-c3ccccc3)cn2c1C, the AC50 (cells [13]) is reported as 57 µM (active).

In the case of Cc1ccc(-c2cnc(-c3ccccc3C(=O)O)o2)cc1, the IC50 [14] is reported as 0.919 µM (active).

In the case of O=C(N/C(=C\c1cccnc1)c1nc2ccccc2[nH]1)c1cccc(Br)c1, the IC50 [15] is reported as 8.16 µM (active), the IC50 [16] is reported as 83.3 µM (inactive) and the IC50 [17] is reported as 4.56 µM (active). For the same compound, the IC50 [18] was > 83.3 µM (inactive).

For COCCNc1nc(NCc2ccc(C(C)C)cc2)c2sccc2n1, the AC50 [19] was 3.95 µM (active), the AC50 [20] was 47.4 µM (active) and the AC50 [21] was 17.5 µM (active). For the same compound, the IC50 [22] was 13 µM (active), the IC50 [23] was 24.5 µM (inactive) and the AC50 [24] was 3 µM (active). The AC50 [25] was 33.2 µM (active).

With CN1C(=O)c2cc(NC(=O)c3ccc(C(F)(F)F)cc3)ccc2OC[C@H]2O[C@H](CC(=O)NCc3ccc4c(c3)OCO4)CC[C@H]21 the AC50 [26] was 12.3 µM (active), the AC50 [27] was 0.571 µM (active) and the AC50 [28] was 28.4 µM (active).
